Test results published in patent US20250129067A1 (Progentos Therapeutics, Inc., priority 2021, published 2025).

Assays:
[1] = tested on: Oligodendrocyte progenitor cells (OPCs); test: In vitro OPC differentiation assay, GPR17 expression (immunocytochemistry); conditions: 3 μM (10× concentration, final 0.3 μM); 72 hours; fold change over vehicle
PDGFRα = PDGFRα (Homo sapiens (Human), UniProt P16234); test: PDGFRα kinase enzyme assay (Promega PDGFRα Kinase Enzyme System, ADP-Glo); type: biochemical; conditions: 11-point dose response, 10,000 nM to 0.169 nM, 150 uM ATP, BLQ = below limit of quantitation; for IC50: read-out: IC50 Values on PDGFRα Kinase Inhibition, IC50
In short: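 Read-out was ADP-Glo: remaining ATP depleted, ADP converted to luminescence and compared with a standard curve.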

Sequence of PDGFRα (P16234 24-1089): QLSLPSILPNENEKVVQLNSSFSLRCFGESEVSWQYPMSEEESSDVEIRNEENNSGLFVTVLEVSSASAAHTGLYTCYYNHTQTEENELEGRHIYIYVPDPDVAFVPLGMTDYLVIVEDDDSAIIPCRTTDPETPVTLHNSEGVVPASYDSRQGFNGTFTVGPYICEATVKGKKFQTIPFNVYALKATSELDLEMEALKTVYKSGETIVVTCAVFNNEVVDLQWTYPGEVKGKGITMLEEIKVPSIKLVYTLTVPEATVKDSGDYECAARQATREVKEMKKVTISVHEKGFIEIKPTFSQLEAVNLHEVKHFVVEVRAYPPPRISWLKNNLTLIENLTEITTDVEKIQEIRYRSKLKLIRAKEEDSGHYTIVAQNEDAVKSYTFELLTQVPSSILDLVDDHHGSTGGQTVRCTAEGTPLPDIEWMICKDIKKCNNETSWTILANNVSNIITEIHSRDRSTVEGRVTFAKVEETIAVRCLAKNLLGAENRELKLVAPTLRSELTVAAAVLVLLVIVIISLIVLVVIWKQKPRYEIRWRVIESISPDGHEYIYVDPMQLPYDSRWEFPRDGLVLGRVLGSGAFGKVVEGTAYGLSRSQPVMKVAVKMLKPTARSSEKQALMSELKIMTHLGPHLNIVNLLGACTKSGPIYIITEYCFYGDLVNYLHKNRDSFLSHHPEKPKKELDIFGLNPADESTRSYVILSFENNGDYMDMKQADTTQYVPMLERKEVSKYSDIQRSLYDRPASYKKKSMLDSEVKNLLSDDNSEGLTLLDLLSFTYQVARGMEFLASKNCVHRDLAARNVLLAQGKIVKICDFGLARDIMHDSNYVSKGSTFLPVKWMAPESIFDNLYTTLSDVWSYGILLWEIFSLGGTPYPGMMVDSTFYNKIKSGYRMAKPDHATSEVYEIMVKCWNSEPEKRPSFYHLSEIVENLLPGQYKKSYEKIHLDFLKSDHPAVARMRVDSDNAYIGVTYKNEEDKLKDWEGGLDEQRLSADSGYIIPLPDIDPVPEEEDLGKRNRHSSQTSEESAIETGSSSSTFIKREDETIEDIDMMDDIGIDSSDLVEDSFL

GPR17 Fold Induction (Over Vehicle; 3 μM) [1]	IC50 (PDGFRα) [nM]	IC50 Values on PDGFRα Kinase Inhibition, IC50 (nM) (PDGFRα)	Compound
2.24	> 10000		Cn1cc(-c2ccc3c(C4=CCC(CCc5ccccc5)CC4)cnn3c2)cn1 (centres unmarked) [Compound 242, 6-(1-methyl-1H-pyrazol-4-yl)-3-(4-phenethylcyclohex-1-en-1-yl)pyrazolo[1,5-a]pyridine]
0.62	> 10000		Cn1cc(-c2ccc3c(C4=CCC(COc5ccccc5)CC4)cnn3c2)cn1 (centres unmarked) [Compound 243, 1-methyl-4-{3-[4-(phenoxymethyl)cyclohex-1-en-1-yl]pyrazolo[1,5-a]pyridin-6-yl}pyrazole]
4.76	2140		Cn1cc(-c2ccc3c(NCC(=O)Nc4ncc(Cc5ccccc5)cn4)cnn3c2)cn1 [Compound 244, N-(5-benzylpyrimidin-2-yl)-2-((6-(1-methyl-1H-pyrazol-4-yl)pyrazolo[1,5-a]pyridin-3-yl)amino) acetamide]
5.22	> 10000		Cn1cc(-c2ccc3c(N4CCN(c5nc(Cc6ccccc6)ns5)CC4)cnn3c2)cn1 [Compound 245, 3-benzyl-5-(4-(6-(1-methyl-1H-pyrazol-4-yl)pyrazolo[1,5-a]pyridin-3-yl)piperazin-1-yl)-1,2,4-thiadiazole]
3.04	937		Cn1cc(-c2ccc3c(N4CCN(c5ncc(C(N)c6ccc(F)cc6)cn5)CC4)cnn3c2)cn1 (centres unmarked) [Compound 246, 1-(4-fluorophenyl)-1-(2-{4-[6-(1-methyl-1H-pyrazol-4-yl)pyrazolo[1,5-a]pyridin-3-yl]piperazin-1-yl}pyrimidin-5-yl)methanamine]
1.79	674		CC(C)N(C)C(=O)N1CCN(c2cnn3cc(-c4cnn(C)c4)ccc23)CC1 [Compound 252, N-isopropyl-N-methyl-4-[6-(1-methyl-1H-pyrazol-4-yl)pyrazolo[1,5-a]pyridin-3-yl]piperazine-1-carboxamide]
0.97	> 10000		COc1ccc(CN2CCN(c3cnn4cc(-c5cnn(C)c5)ccc34)CC2)cc1 [Compound 253, 3-[4-(4-methoxybenzyl)piperazin-1-yl]-6-(1-methyl-1H-pyrazol-4-yl)pyrazolo[1,5-a]pyridine]
2.69	> 10000		COc1ccc2c(N3CCN(c4ncc(Cc5ccccc5)cn4)CC3)cnn2c1 [Compound 259, 3-[4-(5-benzylpyrimidin-2-yl)piperazin-1-yl]-6-methoxypyrazolo-[1,5-a]pyridine]
2.61	> 10000		Cn1cc(-c2ccc3c(N4CCN(c5ncc(C(F)(F)c6ccc(F)cc6)cn5)CC4)cnn3c2)cn1 [Compound 262, 3-(4-(5-(difluoro (4-fluorophenyl)methyl)pyrimidin-2-yl)piperazin-1-yl)-6-(1-methyl-1H-pyrazol-4-yl)pyrazolo[1,5-a]pyridine]
2.11	2700		C[C@H](c1ccc(Cl)cc1)N(C)C(=O)N1CCN(c2cnn3cc(-c4cnn(C)c4)ccc23)CC1 [Compound 276, (R)—N-(1-(4-chlorophenyl)ethyl)-N-methyl-4-(6-(1-methyl-1H-pyrazol-4-yl)pyrazolo[1,5-a]pyridin-3-yl)piperazine-1-carboxamide]
6.13	1400		CN(Cc1ccc(Cl)cc1)C(=O)N1CCN(c2cnn3cc(-c4cnn(C)c4)ccc23)CC1 [Compound 278, N-(4-chlorobenzyl)-N-methyl-4-[6-(1-methyl-1H-pyrazol-4-yl)pyrazolo[1,5-a]pyridin-3-yl]piperazine-1-carboxamide]
3.05	6180		Cn1cc(-c2ccc3c(N4CCN(C(=O)OCc5ccccc5C(N)=O)CC4)cnn3c2)cn1 [Compound 280, 2-carbamoylbenzyl 4-(6-(1-methyl-1H-pyrazol-4-yl)pyrazolo[1,5-a]pyridin-3-yl)piperazine-1-carboxylate]
11.42	303		Cn1cc(-c2ccc3c(N4CCN(C(=O)OCc5ccccc5C#N)CC4)cnn3c2)cn1 [Compound 281, 2-cyanobenzyl 4-(6-(1-methyl-1H-pyrazol-4-yl)pyrazolo[1,5-a]pyridin-3-yl)piperazine-1-carboxylate]
6.21	> 10000		Cn1cc(-c2ccc3c(N4CCN(c5ncc(C(=O)C(F)(F)F)cn5)CC4)cnn3c2)cn1 [Compound 284, 2,2,2-trifluoro-1-(2-(4-(6-(1-methyl-1H-pyrazol-4-yl)pyrazolo[1,5-a]pyridin-3-yl)piperazin-1-yl)pyrimidin-5-yl)ethan-1-one]
6.20	7620		Cn1cc(-c2ccc3c(N4CCN(c5ncc(C(O)C(F)(F)F)cn5)CC4)cnn3c2)cn1 (centres unmarked) [Compound 285, 2,2,2-trifluoro-1-(2-{4-[6-(1-methyl-1H-pyrazol-4-yl)pyrazolo[1,5-a]pyridin-3-yl]piperazin-1-yl}pyrimidin-5-yl)ethanol]
4.95	1790		CC(O)C(O)c1cnc(N2CCN(c3cnn4cc(-c5cnn(C)c5)ccc34)CC2)nc1 (centres unmarked) [Compound 286, 1-(2-(4-(6-(1-methyl-1H-pyrazol-4-yl)pyrazolo[1,5-a]pyridin-3-yl)piperazin-1-yl)pyrimidin-5-yl)propane-1,2-diol]
6.48	2470		CCC(O)c1cnc(N2CCN(c3cnn4cc(-c5cnn(C)c5)ccc34)CC2)nc1 (centres unmarked) [Compound 287, 1-(2-{4-[6-(1-methyl-1H-pyrazol-4-yl)pyrazolo[1,5-a]pyridin-3-yl]piperazin-1-yl}pyrimidin-5-yl)propan-1-ol]
5.92		BLQ	C[C@@H](NC(=O)N1CCN(c2cnn3cc(-c4cnn(C)c4)ccc23)CC1)c1ccc(C(F)(F)F)cc1 [Compound 288, 4-[6-(1-methyl-1H-pyrazol-4-yl)pyrazolo[1,5-a]pyridin-3-yl]-N-{(1R)-1-[4-(trifluoromethyl)phenyl]ethyl}piperazine-1-carboxamide]
7.44	430		C[C@@H](OC(=O)N1CCN(c2cnn3cc(-c4cnn(C)c4)ccc23)CC1)c1ccncc1 [Compound 289, (R)-1-(pyridin-4-yl)ethyl 4-(6-(1-methyl-1H-pyrazol-4-yl)pyrazolo[1,5-a]pyridin-3-yl)piperazine-1-carboxylate]
10.47	0.56		[2H]C1([2H])N(C(=O)O[C@H](C)c2ccc(Cl)cc2)C([2H])([2H])C([2H])([2H])N(c2cnn3cc(-c4cnn(C)c4)ccc23)C1([2H])[2H] [Compound 290, (R)-1-(4-chlorophenyl)ethyl 4-(6-(1-methyl-1H-pyrazol-4-yl)pyrazolo[1,5-a]pyridin-3-yl)piperazine-1-carboxylate-2,2,3,3,5,5,6,6-d8]
9.78	50		Cn1cc(-c2ccc3c(N4CCN(S(=O)(=O)NCc5ccc(Cl)cc5)CC4)cnn3c2)cn1 [Compound 292, N-(4-chlorobenzyl)-4-(6-(1-methyl-1H-pyrazol-4-yl)pyrazolo[1,5-a]pyridin-3-yl)piperazine-1-sulfonamide]
7.29	5250		C[C@@H](NS(=O)(=O)N1CCN(c2cnn3cc(-c4cnn(C)c4)ccc23)CC1)c1ccc(Cl)cc1 [Compound 293, (R)-N-(1-(4-chlorophenyl)ethyl)-4-(6-(1-methyl-1H-pyrazol-4-yl)pyrazolo[1,5-a]pyridin-3-yl)piperazine-1-sulfonamide]
9.58	5.96		Cn1cc(-c2ccc3c(N4CCN(S(=O)(=O)NCc5ccc(C(F)(F)F)cc5)CC4)cnn3c2)cn1 [Compound 294, 4-(6-(1-methyl-1H-pyrazol-4-yl)pyrazolo[1,5-a]pyridin-3-yl)-N-(4-(trifluoromethyl)benzyl)piperazine-1-sulfonamide]
8.65	31.7		Cn1cc(-c2cnn3c(N4CCN(C(=O)NCc5ccc(C(F)(F)F)cc5)CC4)cnc3c2)cn1 [Compound 295, 4-(7-(1-methyl-1H-pyrazol-4-yl)imidazo[1,2-b]pyridazin-3-yl)-N-(4-(trifluoromethyl)benzyl)piperazine-1-carboxamide]
10.65	397		Cn1cc(-c2cnn3c(N4CCN(S(=O)(=O)NCc5ccc(C(F)(F)F)cc5)CC4)cnc3c2)cn1 [Compound 296, 4-(7-(1-methyl-1H-pyrazol-4-yl)imidazo[1,2-b]pyridazin-3-yl)-N-(4-(trifluoromethyl)benzyl)piperazine-1-sulfonamide]
1.56	> 10000		CCC(O)c1ccc2c(N3CCN(C(=O)OC(C)(C)C)CC3)cnn2c1 (centres unmarked) [Compound 298, tert-butyl 4-(6-(1-hydroxypropyl)pyrazolo[1,5-a]pyridin-3-yl)piperazine-1-carboxylate]
1.43	> 10000		Cn1cc(-c2ccc3c(C(O)CCc4ncc(Cc5ccccc5)cn4)cnn3c2)cn1 (centres unmarked) [Compound 299, 3-(5-benzylpyrimidin-2-yl)-1-(6-(1-methyl-1H-pyrazol-4-yl)pyrazolo[1,5-a]pyridin-3-yl)propan-1-ol]
1.24	3550		Cn1cc(-c2ccc3c(N4CC=C(c5ncc(Cc6ccccc6)cn5)CC4)cnn3c2)cn1 [Compound 300, 3-(4-(5-benzylpyrimidin-2-yl)-3,6-dihydropyridin-1 (2H)-yl)-6-(1-methyl-1H-pyrazol-4-yl)pyrazolo[1,5-a]pyridine]
